What was measured:
[1] = DPPH free radical scavenging assay; conditions: read-out: DPPH IC50; 0.1 mM DPPH, 30 min, 517 nm; mean ± SD
[2] = system: Plasmodium falciparum 3D7; experiment: Antimalarial assay; type: cell-based
[3] = system: HEK-293 (normal human embryonic kidney) cells; experiment: Cytotoxicity assay; type: cell-based; conditions: HEK293, 48 h, read-out: IC50 (HEK-293)
[4] = system: MCF-7 (human breast adenocarcinoma) cells; experiment: Cytotoxicity assay; type: cell-based; conditions: MCF7, 48 h, read-out: IC50 (MCF-7)

Row | Compound | IC50 [1] [µM] | IC50 ([2]; Plasmodium falciparum, 3D7, 72 h, read-out: Antimalarial IC50) [µM] | Selectivity index (HEK/IC50) ([2]; SI = IC50 (HEK-293)/IC50 (antimalarial)) | IC50 [3] [µM] | IC50 [4] [µM]
1 | CC(=NNC(=S)NN=C(C(=NO)c1ccccc1)c1ccccc1)c1ccccc1C [HBMT-MA7, N'-[2-(Hydroxyimino)-1,2-diphenylethylidene]-2-[1-(o-tolyl)ethylidene]hydrazine-1-carbothiohydrazide] | 10.5 ± 0.19 | 2.91 ± 0.14 | 23.4 | 68.2 ± 1.8 | 29.7 ± 1
2 | O=C1O[C@H]([C@@H](O)CO)C(O)=C1O [Ascorbic acid, reference compound] | 5.21 ± 0.06 | – | – | – | –
